Experimental data reported in US7118692B2, “Substituted thienothiophene monomers and conducting polymers” (priority 2004, dated 2006).

What was measured:
[1] = solubility of monomer in solvents; format: physicochemical; conditions: wide variety of solvents
Source text: The tert-butyl substituted thienothiophenes and their conjugated oligomers and polymers show better properties compared to their hydrogen, decyl and phenyl analogs.

[2] = toxicity testing, dermal LD50; conditions: in vivo, topical or ocular
[3] = toxicity testing, oral LD50; conditions: in vivo

SMILES | solubility in solvents [1] | LD50 [2] | LD50 [3]
c1ccc(-c2cc3cscc3s2)cc1 [2-phenyl-thieno[3,4-b]thiophene] | only sparingly soluble | – | –
CC(C)(C)c1cc2cscc2s1 [2-tert-butyl-thieno[3,4-b]thiophene] | readily soluble in a wide variety of solvents | > 400 mg/kg | > 500 mg/kg
c1cc2cscc2s1 [Thieno[3,4-b]thiophene] | – | 200 to 400 mg/kg | 50 mg/kg
